Data as given in patent US11578315B2, “Truncated guinea pig L-asparaginase variants and methods of use” (THE BOARD OF TRUSTEES OF THE UNIVERSITY OF ILLINOIS, priority 2017, dated 2023).
Several values for one entry are separate records, joined by “and”; a condition that tells them apart may be missing. Identical values can stand only once.

Experiments:
[1] = tested on: guinea pig L-asparaginase (gpASNase1, GpA), wild type, SEQ ID NO:1; conditions: Schalk, et al. (2014), cited from earlier work
[2] = biological target: human L-asparaginase 1 (hASNase1), wild type, SEQ ID NO:2 (Homo sapiens, UniProt Q86U10); assay: L-asparaginase kinetics, NADH-dependent enzyme-coupled assay; format: biochemical
Protocol: (§1) The catalytic activity of the clones was determined using a spectroscopic NADH-dependent enzyme-coupled assay (Fernandez, et al. (2013) Int. J. Clin. Exp. Med. 6:478-487; Hejazi, et al. (2002) Biochem. J. 364:129-136), which measures the production of L-aspartic acid (Asp) through the 1:1 oxidation of reduced NADH. The conversion of NADH to NAD was measured spectrophotometrically as a decrease in absorbance at 340 nm at 37° C. All measurements were taken in triplicate in a buffer containing 100 mM Tris pH 7.5, 0.4 mM α-ketoglutarate and 0.4 mM NADH with 50 nM (hASNase1, hN-gC); 10 nM (gpASNase1, gN-hC, 63-hC, 64-hC, 65-hC, SA-hC) or 3 nM (ansB) enzyme. Glutamic-oxalacetic transaminase (Sigma) and malic dehydrogenase (Sigma) were helper enzymes for the coupled enzymatic reactions; 5 and 1 unit were used, respectively. Data were fit to the Michaelis-Menten equation using SigmaPlot (Systat Software Inc). Due to the cooperative nature of hASNase1, this enzyme was analyzed using the Hill equation.

[3] = biological target: T1, E. coli L-asparaginase ansB (type II) (Escherichia coli, UniProt P00805); assay: as above; format: biochemical; conditions: 50 μM Asn, pH 7.5, 37° C.
T1 construct: made in house
Protocol: as §1

[4] = biological target: T2, guinea pig L-asparaginase (gpASNase1, GpA), wild type, full length (GpA-FL), SEQ ID NO:1 (Cavia porcellus, UniProt H0W0T5); assay: as above; format: biochemical
T2 construct: Full length GpA (GpA-FL); made in house
T2 sequence (H0W0T5 1-565): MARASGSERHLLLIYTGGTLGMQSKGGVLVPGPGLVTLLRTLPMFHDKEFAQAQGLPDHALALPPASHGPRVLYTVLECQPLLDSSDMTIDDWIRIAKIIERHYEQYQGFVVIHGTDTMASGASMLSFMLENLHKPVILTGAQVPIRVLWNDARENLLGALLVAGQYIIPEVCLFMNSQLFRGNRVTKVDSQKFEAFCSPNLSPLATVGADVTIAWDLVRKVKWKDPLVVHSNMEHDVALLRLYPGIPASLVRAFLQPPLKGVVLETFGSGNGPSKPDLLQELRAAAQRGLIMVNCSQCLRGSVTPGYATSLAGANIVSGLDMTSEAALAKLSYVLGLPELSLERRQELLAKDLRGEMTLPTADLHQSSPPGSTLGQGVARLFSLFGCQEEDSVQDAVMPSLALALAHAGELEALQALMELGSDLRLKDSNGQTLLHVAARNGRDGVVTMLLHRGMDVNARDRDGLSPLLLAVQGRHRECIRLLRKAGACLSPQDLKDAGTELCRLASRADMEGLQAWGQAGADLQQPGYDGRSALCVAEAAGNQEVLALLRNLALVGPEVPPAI
Protocol: as §1

[5] = tested on: E. coli L-asparaginase iiiA; conditions: in words; cited from earlier work
[6] = tested on: hN-gC, chimera of human hASNase1 N-terminal domain (residue 1-361) and guinea pig gpASNase1 C-terminal domain (residue 360-565), SEQ ID NO:38; assay: L-asparaginase kinetics, NADH-dependent enzyme-coupled assay; format: biochemical; conditions: pH 7.5, 37° C.
Description: (§2) To build the clone hN-gC, the sequence corresponding to the N-terminal domain of hASNase1 (hN, residue 1-361) was amplified using the primers NdeI-hA_F1 and gpA360-367_R and the sequence corresponding to the C-terminal domain of gpASNase1 (gC, residue 360-565) was amplified using the primers hA354-361_F and gpA-BamHI_R565. To build the clone gN-hC the sequence corresponding to the N-terminal domain of gpASNase1 (gN, residue 1-359) was amplified using the primers NdeI-gpA_F1 and hA362-369_R and the sequence corresponding to the C-terminal domain of hASNase1 (hC, residue 362-573) was amplified using the primers gpA352-359_F and hA_BamHI_R573. The chimera was then constructed by PCR fusion of fragment hN and gC or gN and hC using the appropriate primers and then subsequently cloned into the pBAD and pET vectors.
as §1
(§3) Accordingly, two chimeras were generated; one, which was referred to as hN-gC and included the human N-terminal domain fused to the guinea pig C-terminal domain, and the second, which was referred to as gN-hC and included the guinea pig N-terminal domain fused to the human C-terminal domain (FIG. 1, Table 3). In vitro kinetic characterization of these chimeras validated the prediction, with hN-gC displaying kinetic properties similar to hASNase1 and gN-hC displaying kinetic properties similar to gpASNase1 (Table 4).

[7] = tested on: gN-hC, chimera of guinea pig gpASNase1 N-terminal domain (residue 1-359) and human hASNase1 C-terminal domain (residue 362-573), SEQ ID NO:37; assay: as above; format: biochemical; conditions: pH 7.5, 37° C.
Description: as §2, §1, §3

[8] = tested on: human L-asparaginase type I (hASNase1), SEQ ID NO:2; conditions: in words; Karamitros & Konrad (2014); Schalk, et al. (2014); cited from earlier work
[9] = biological target: T3, guinea pig L-asparaginase (GpA) variant 20K-PEGylated-GpA369-C198A, SEQ ID NO:51 (Cavia porcellus, UniProt H0W0T5, C198A); assay: L-asparaginase activity, kobs at 2 mM Asn; format: biochemical; conditions: linear PEG
T3 construct: made in house
Protocol: as §1
(§4) Each of the variants listed in Table 9 were recombinantly expressed, purified and PEGylated with one or more of mPEG-10K, mPEG-20K and mPEG-40K (Table 10). As determined by SDS-PAGE analysis, the size of the PEGylated enzymes increased with an increase in the number of active cysteines. For example, using maleimide-PEG10K, GpA369(hum)-C198A migrated at a higher molecular weight after PEGylation (due to the extra 10K Da supplied by the PEG), and GpA369(hum)-C198A+R52C migrated at an even higher apparent molecular weight since this variant can react with two PEG molecules (for a total of an extra 20K Da supplied by two 10K molecules linked to the enzyme). Of note, the GpA369-C198A-K225C-E340C-E49C-Q257C mutant was prepared, expressed, purified and PEGylated with mPEG-10K.

[10] = biological target: T4, guinea pig L-asparaginase (GpA) variant 10K-PEGylated-GpA369-C198A, SEQ ID NO:51 (Cavia porcellus, UniProt H0W0T5, C198A); assay: L-asparaginase activity, kobs at 2 mM Asn; format: biochemical; conditions: linear PEG
T4 construct: made in house
Protocol: as §1, §4

[11] = biological target: T5, guinea pig L-asparaginase (GpA) variant 40K-PEGylated-GpA369-C198A, SEQ ID NO:51 (Cavia porcellus, UniProt H0W0T5, C198A); assay: L-asparaginase activity, kobs at 2 mM Asn; format: biochemical; conditions: linear PEG
T5 construct: made in house
Protocol: as §1, §4

[12] = tested on: 64N-hC, shuffled hASNase1/gpASNase1 clone #64 with human C-terminal domain, SEQ ID NO:40; assay: L-asparaginase kinetics, NADH-dependent enzyme-coupled assay; format: biochemical, human / guinea pig; conditions: pH 7.5, 37° C.
Protocol: as §1
(§5) Since the goal was to identify a clone with gpASNase1 kinetic properties but with the highest sequence homology to hASNase1, the four clones, #63, #64, #65 and # SA, were engineered by replacing their shuffled C-terminal domain with the exact sequence of the human C-terminal domain (FIG. 1).
(§6) For determining the precise kinetic properties of 63N-hC, 64N-hC, 65N-hC and SAN-hC, the genes encoding these enzymes were sub-cloned into a pET14b expression vector and expressed in C41 E. coli cells. The purified clones were tested for their L-asparaginase activity (Table 4). E. coli L-asparaginase ansB was also included in order to compare the clones to an L-asparaginase approved for cancer therapy. […] Importantly, the kobs@50 μM values for the humanized clones were also in this range, being 17 sec^−1, 10 sec^−1, 17 sec^−1 and 6 sec^−1 for clones 63N-hC, 64N-hC, 65N-hC and SAN-hC, respectively.

[13] = tested on: 65N-hC, shuffled hASNase1/gpASNase1 clone #65 with human C-terminal domain, SEQ ID NO:41; assay: as above; format: biochemical, human / guinea pig; conditions: pH 7.5, 37° C.
Protocol: as §1, §5, §6

[14] = tested on: SAN-hC, shuffled hASNase1/gpASNase1 clone #SA with human C-terminal domain, SEQ ID NO:42; assay: as above; format: biochemical, human / guinea pig; conditions: pH 7.5, 37° C.
Protocol: as §1, §5, §6

[15] = tested on: 63N-hC, shuffled hASNase1/gpASNase1 clone #63 with human C-terminal domain, SEQ ID NO:39; assay: as above; format: biochemical, human / guinea pig; conditions: pH 7.5, 37° C.
Protocol: as §1, §5, §6

[16] = biological target: T6, guinea pig L-asparaginase (GpA) variant GpA369-C198A + K225C + E340C, SEQ ID NO:55 (Cavia porcellus, UniProt H0W0T5, C198A/E340C/K225C); assay: L-asparaginase activity, kobs at 2 mM Asn; format: biochemical
T6 construct: made in house
Protocol: as §1

[17] = biological target: T7, guinea pig L-asparaginase (GpA) variant GpA369, residues 1-369, SEQ ID NO:5 (Cavia porcellus, UniProt H0W0T5); assay: L-asparaginase activity, kobs at 2 mM Asn; format: biochemical
T7 construct: GpA369; 1-369; SUMO (cleaved yes); made in house
Protocol: as §1

[18] = biological target: T8, guinea pig L-asparaginase (GpA) variant GpA369-C198A + K225C, SEQ ID NO:54 (Cavia porcellus, UniProt H0W0T5, C198A/K225C); assay: L-asparaginase activity, kobs at 2 mM Asn; format: biochemical
T8 construct: GpA369-C198A + K225C; 99.4%; 71.7%; 54; made in house
Protocol: as §1

[19] = biological target: T9, guinea pig L-asparaginase (GpA) variant GpA369-C198A, SEQ ID NO:51 (Cavia porcellus, UniProt H0W0T5, C198A); assay: L-asparaginase activity, kobs at 2 mM Asn; format: biochemical
T9 construct: made in house
Protocol: as §1

[20] = biological target: T10, guinea pig L-asparaginase (GpA) variant GpA369-C198A + K225C + E340C + E49C, SEQ ID NO:56 (Cavia porcellus, UniProt H0W0T5, C198A/E340C/E49C/K225C); assay: L-asparaginase activity, kobs at 2 mM Asn; format: biochemical
T10 construct: made in house
Protocol: as §1

Chain of human L-asparaginase 1 (hASNase1), wild type, SEQ ID NO:2 (Q86U10 whole entry): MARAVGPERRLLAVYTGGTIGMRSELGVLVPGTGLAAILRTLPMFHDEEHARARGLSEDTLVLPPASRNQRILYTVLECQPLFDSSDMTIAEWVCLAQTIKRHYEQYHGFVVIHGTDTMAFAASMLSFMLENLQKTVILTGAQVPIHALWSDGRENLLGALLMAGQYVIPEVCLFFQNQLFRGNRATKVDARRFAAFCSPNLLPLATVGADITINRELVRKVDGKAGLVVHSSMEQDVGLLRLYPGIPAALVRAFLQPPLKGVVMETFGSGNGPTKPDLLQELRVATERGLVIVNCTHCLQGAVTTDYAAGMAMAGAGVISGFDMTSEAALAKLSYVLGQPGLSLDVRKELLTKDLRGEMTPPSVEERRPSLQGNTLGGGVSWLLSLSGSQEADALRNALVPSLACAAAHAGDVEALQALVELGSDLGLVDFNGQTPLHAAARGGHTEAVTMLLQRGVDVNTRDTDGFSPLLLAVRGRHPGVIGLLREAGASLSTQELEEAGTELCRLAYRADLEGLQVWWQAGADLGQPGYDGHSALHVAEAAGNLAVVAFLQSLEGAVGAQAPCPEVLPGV
T1 sequence (P00805 23-348): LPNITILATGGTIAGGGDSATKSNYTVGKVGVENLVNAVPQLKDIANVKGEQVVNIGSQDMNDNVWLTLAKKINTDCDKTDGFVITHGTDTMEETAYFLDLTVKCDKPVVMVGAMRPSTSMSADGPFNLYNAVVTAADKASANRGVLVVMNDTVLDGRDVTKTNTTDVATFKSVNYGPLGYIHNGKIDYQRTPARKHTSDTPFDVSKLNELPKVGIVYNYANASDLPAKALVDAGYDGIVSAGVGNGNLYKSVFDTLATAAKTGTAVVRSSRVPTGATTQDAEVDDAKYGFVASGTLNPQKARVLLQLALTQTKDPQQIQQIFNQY
T3 sequence (H0W0T5 1-369 C198A): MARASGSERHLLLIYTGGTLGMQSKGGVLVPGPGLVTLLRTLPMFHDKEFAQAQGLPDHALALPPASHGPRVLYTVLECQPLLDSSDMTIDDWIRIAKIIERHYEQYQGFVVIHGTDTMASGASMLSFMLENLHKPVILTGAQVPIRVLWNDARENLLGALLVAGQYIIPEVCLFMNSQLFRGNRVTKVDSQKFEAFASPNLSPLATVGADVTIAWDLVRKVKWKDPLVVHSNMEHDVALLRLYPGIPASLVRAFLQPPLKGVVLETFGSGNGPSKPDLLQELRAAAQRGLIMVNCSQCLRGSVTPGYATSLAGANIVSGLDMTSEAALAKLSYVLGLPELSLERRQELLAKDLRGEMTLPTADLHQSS
T5 sequence (H0W0T5 1-369 C198A): as above
T9 sequence (H0W0T5 1-369 C198A): as above
T4 sequence (H0W0T5 1-369 C198A): as above
T8 sequence (H0W0T5 1-369 C198A/K225C): as the sequence (H0W0T5 1-369 C198A) above, with K225C counted along it
T6 sequence (H0W0T5 1-369 C198A/K225C/E340C): as the sequence (H0W0T5 1-369 C198A) above, with K225C, E340C counted along it
T10 sequence (H0W0T5 1-369 E49C/C198A/K225C/E340C): as the sequence (H0W0T5 1-369 C198A) above, with E49C, K225C, E340C counted along it

NC(=O)C[C@H](N)C(=O)O [Asn, L-asparagine]
reaction rate (kcat) [1]: approximately 39 s^−1 | Km for Asn ([1]; in words): in the micromolar range | Km ([1]; read-out: Km for Asn): 58 µM | kcat ([2]; Hill-equation (n = 2.1), pH 7.5, 37° C., 50 nM enzyme): 17 ± 0.8 s⁻¹ | Hill coefficient n ([2]; Hill-equation fit): *Kinetic parameters using the Hill-equation (n = 2.1) | kobs @50 μM [3]: 41 ± 0.3 s⁻¹ | kobs @50 μM ([4]; 50 μM Asn, pH 7.5, 37° C.): 20 s⁻¹ and 20 ± 1 s⁻¹ | kobs at 2 mM ASN ([4]; 2 mM Asn, full length GpA): 41 s⁻¹ | Km ([4]; pH 7.5, 37° C., 10 nM enzyme): 50 ± 7 µM | kcat ([4]; pH 7.5, 37° C., 10 nM enzyme): 41 ± 2 s⁻¹ | Km value for Asn [5]: very high | kcat/Km [6]: 0.004 sec^−1μM^−1 | Km ([6]; 50 nM enzyme): 3800 ± 120 µM | kcat ([6]; 50 nM enzyme): 14 ± 0.5 s⁻¹ | kobs @50 μM ([7]; 50 μM Asn): 14 ± 1 s⁻¹ | kcat/Km [7]: 0.7 sec^−1μM^−1 | Km ([7]; 10 nM enzyme): 35 µM | kcat ([7]; 10 nM enzyme): 24 ± 1 s⁻¹ | Km for Asn [8]: in the millimolar range | kobs at 2 mM ASN [9]: 83.7 s⁻¹ | kobs at 2 mM ASN [10]: 83.3 s⁻¹ | kobs at 2 mM ASN [11]: 76.5 s⁻¹ | kobs @50 μM ([12]; 50 μM Asn): 10 s⁻¹ and 10 ± 1 s⁻¹ | kcat/Km [12]: 0.3 sec^−1μM^−1 | Km ([12]; 10 nM enzyme): 202 ± 17 µM | kcat ([12]; 10 nM enzyme): 60 ± 2 s⁻¹ | kobs @50 μM ([13]; 50 μM Asn): 17 s⁻¹ and 17 ± 1 s⁻¹ | kcat/Km [13]: 0.5 sec^−1μM^−1 | Km ([13]; 10 nM enzyme): 74 µM | kcat ([13]; 10 nM enzyme): 40 ± 1 s⁻¹ | kobs @50 μM ([14]; 50 μM Asn): 6 s⁻¹ and 6 ± 1 s⁻¹ | kcat/Km [14]: 0.2 sec^−1μM^−1 | Km ([14]; 10 nM enzyme): 165 µM | kcat ([14]; 10 nM enzyme): 32 ± 2 s⁻¹ | kobs @50 μM ([15]; 50 μM Asn): 17 s⁻¹ and 17 ± 0.5 s⁻¹ | kcat/Km [15]: 0.7 sec^−1μM^−1 | Km ([15]; 10 nM enzyme): 47 µM | kcat ([15]; 10 nM enzyme): 32 ± 0.6 s⁻¹ | kobs at 2 mM ASN [16]: 42.4 s⁻¹ | kobs at 2 mM ASN [17]: 44 s⁻¹ | kobs at 2 mM ASN [18]: 41.4 s⁻¹ | kobs at 2 mM ASN [19]: 43.3 s⁻¹ | kobs at 2 mM ASN [20]: 41.6 s⁻¹
